The source of these data is patent US11845760B2, “PRMT5 inhibitors” (AMGEN INC., priority 2020, dated 2023).

For orientation: IC50 means the concentration that inhibits the measured activity by half.

Assay [1] has as its system HCT116 WT cells. Briefly: HCT116 WT cell line proliferation (CellTiter-Glo cell viability, 6 days). It is filed as cell-based. The conditions noted are these: HCT116 WT (parent) cells, 6 days of treatment, CellTiter-Glo cell viability, read-out: HCT-116 WT IC50. Here is the method:
(§1) To assess selective anti-proliferative activity of compounds of the invention in cells that have loss expression of MTAP, an HCT-116 isogenic cell line pair was utilized where one cell line was engineered to genetically knockout both MTAP alleles. Cell viability was then assessed in both the parent HCT-116 cell line and the MTAP null cell line after 6 days of treatment with compounds of the present invention. Selective anti-proliferative activity in the MTAP null cell line indicates MTA-cooperative inhibition of PRMT5 and ability to inhibit growth of cancer cells that have loss of MTAP.
(§2) HCT116 MTAP null and WT cells were seeded in 96-well tissue culture plates in RPMI 1640 media+10% fetal bovine serum. Plates were incubated overnight at 37° C. and 5% CO2. Cells were then treated with an 8- or 9-point serial dilution of compound, using a top concentration of 1, or 10 μM, 1:3 serial dilution steps and, a DMSO-only control. Cells were incubated in the presence of drug for 6 days. Effects on cell viability were measured with the CellTiter-Glo® Luminescent Cell Viability Assay (Promega) per manufacturer's recommendation. Assay plates were read on an EnVision™ Multilabel Reader using the Ultra-Sensitive luminescence module. IC50 values were calculated with GraphPad Prism v 5.01 using symmetrical sigmoidal dose-response least squares fit with Hill slope fixed to −1 and top constrain to 100% or GeneData Screener using a 4-parameter logistic model to fit dose response curves.
(§3) Alternatively, compounds could be assayed with a 384 well plate format:
(§4) Compounds were pre-spotted into 384 well plates with a 22-point serial dilution of compound, using a top concentration of 10 or 50 μM, 1:2 serial dilution steps and, a DMSO-only control. HCT116 MTAP null and WT cells were then seeded as above and after 6 days effects on cell viability were measured with the CellTiter-Glo® Luminescent Cell Viability Assay (Promega). Assay plates were read as above and IC50 values were calculated with GeneData Screener using a 4-parameter logistic model to fit dose response curves. The reported IC50 represents the value where the curve transits 50% of control.
(In general: Cellular ATP, detected with luciferase, serves as a proxy for viable cell number.)

Assay [2] deals with HCT116 MTAP null cells. Briefly: HCT116 MTAP null cell line proliferation (CellTiter-Glo cell viability, 6 days). It is filed as cell-based. As to conditions: HCT116 MTAP null cells, 6 days of treatment, CellTiter-Glo cell viability, read-out: HCT-116 MTAP null IC50. Here is the method:
as §1, §2, §3, §4

Where two headings read alike, the source gives them in different places.

Regarding `Nc1nc2cnc(C(=O)N3CCOCC3c3ccc(OC(F)F)c(F)c3)cc2c2c1COC2` (racemic) [Example 383, (4-amino-1,3-dihydrofuro[3,4-c][1,7]naphthyridin-8-yl)((3R)-3-(4-(difluoromethoxy)-3-fluorophenyl)-4-morpholinyl)methanone and (4-amino-1,3-dihydrofuro[3,4-c][1,7]naphthyridin-8-yl)((3S)-3-(4-(difluoromethoxy)-3-fluorophenyl)-4-morpholinyl)methanone], the IC50 in assay [1] stood at 13900 nM; in assay [2] it was 437 nM.
For `Nc1nc2ccc(C(=O)N3CCCC[C@H]3c3ccc(C(F)(F)F)cc3)cc2c2ccsc12` (single isomer, unassigned) [Example 489], the IC50 in assay [1] (Homo sapiens, HCT-116, 144 h) is 5320 nM; in assay [2] (HCT116-MTAP null, 144 h), greater than 1000 nM.
For `C[C@@H]1COC[C@H](c2ccc(C(F)(F)F)cc2)N1C(=O)c1cc2c3c(c(N)nc2cn1)COC3` [Example 523, (4-amino-1,3-dihydrofuro[3,4-c][1,7]naphthyridin-8-yl)((3R,5S)-3-methyl-5-(4-(trifluoromethyl)phenyl)-4-morpholinyl)methanone], the half-maximal inhibitory concentration (IC50) in assay [1] (Homo sapiens, HCT-116, 144 h) turned out to be 213 nM; in assay [2] (HCT116-MTAP null, 144 h), 9 nM.
As to `CCOc1ccc([C@H]2COC[C@@H](C)N2C(=O)c2ccc3nc(N)c4c(c3c2)CO[C@@H]4C)nn1` [Example 537, ((3R)-4-amino-3-methyl-1,3-dihydrofuro[3,4-c]quinolin-8-yl)((3S,5R)-3-(6-ethoxy-3-pyridazinyl)-5-methyl-4-morpholinyl)methanone], the IC50 in assay [1] (Homo sapiens, HCT-116, 144 h) amounted to 2500 nM; in assay [2] (HCT116-MTAP null, 144 h), 55 nM.
As to `Nc1nc2ccc(C(=O)N3CCOC[C@@H]3c3ccc(OC(F)(F)F)cc3)cc2c2c1COC2` [Example 335, (4-amino-1,3-dihydrofuro[3,4-c]quinolin-8-yl)-[(3S)-3-[4-(trifluoromethoxy)phenyl]morpholin-4-yl]methanone], the half-maximal inhibitory concentration (IC50) is 2690 nM in assay [1] (Homo sapiens, HCT-116, 144 h) and 91 nM in assay [2] (HCT116-MTAP null, 144 h).
In the case of “(4-amino-7-fluoro-1,3- dihydrofuro[3,4-c]quinolin-8- yl)((3R)-3-hydroxy-3-(4- (trifluoromethyl)phenyl)-1- pyrrolidinyl)methanone and (4-amino-7-fluoro-1,3- dihydrofuro[3,4-c]quinolin-8- yl)((3S)-3-hydroxy-3-(4- (trifluoromethyl)phenyl)-1- pyrrolidinyl)methanone [Example 441]”, the figures for the IC50 in assay [1] and in assay [2] were 15600 nM and 683 nM, respectively.
Turning to `C[C@H]1OCc2c1c(N)nc1ccc(C(=O)N3C[C@@H](c4ccc(F)cc4)[C@H](c4cc[nH]n4)C3)cc21` (racemic) [Example 434, ((3R)-4-amino-3-methyl-1,3-dihydrofuro[3,4-c]quinolin-8-yl)((3R,4S)-3-(4-fluorophenyl)-4-(1H-pyrazol-3-yl)-1-pyrrolidinyl)methanone and ((3R)-4-amino-3-methyl-1,3-dihydrofuro[3,4-c]quinolin-8-yl)((3S,4R)-3-(4-fluorophenyl)-4-(1H-pyrazol-3-yl)-1-pyrrolidinyl)methanone], the IC50 in assay [1] (Homo sapiens, HCT-116, 144 h) was found to be 8220 nM; in assay [2] (HCT116-MTAP null, 144 h), 468 nM.
For the compound `Nc1nc2cc(F)c(C(=O)N3CC(O)(c4ccc(C(F)(F)F)cc4)C3)cc2c2c1COC2` [Example 429, (4-amino-7-fluoro-1,3-dihydrofuro[3,4-c]quinolin-8-yl)(3-hydroxy-3-(4-(trifluoromethyl)phenyl)-1-azetidinyl)methanone], the IC50 in assay [1] (Homo sapiens, HCT-116, 144 h) stood at 20600 nM; in assay [2] (HCT116-MTAP null, 144 h) it was 382 nM.
The corresponding values for `C[C@@H]1COC[C@H](c2ccc(OCCC(F)(F)F)nn2)N1C(=O)c1cc2c3c(c(N)nc2cn1)COC3` [Example 564, (4-amino-1,3-dihydrofuro[3,4-c][1,7]naphthyridin-8-yl)((3R,5S)-3-methyl-5-(6-(3,3,3-trifluoropropoxy)-3-pyridazinyl)-4-morpholinyl)methanone] are 708 nM and 28 nM.
The corresponding values for `Cc1ccc([C@@H]2CN(C(=O)c3cc4c5c(c(N)nc4cc3F)COC5)CC2(C)C)cc1` (single isomer, unassigned) [Example 464] are 5470 nM and 195 nM.
Turning to `Nc1nc2cnc(C(=O)N3CCC(F)(F)C[C@@H]3c3ccc(OC(F)(F)F)cc3)cc2c2c1COC2` (single isomer, unassigned) [Example 600], the IC50 in assay [1] (Homo sapiens, HCT-116, 144 h) is greater than 10000 nM; in assay [2] (HCT116-MTAP null, 144 h), 921 nM.
Turning to `Nc1nc2ccc(C(=O)N3CCOCC3c3cccc(Br)c3)cc2c2c1COC2` (racemic) [Example 366, (4-amino-1,3-dihydrofuro[3,4-c]quinolin-8-yl)-[rac-(3S)-3-(3-bromophenyl)morpholin-4-yl]methanone], the IC50 in assay [2] (HCT116-MTAP null, 144 h) is 363 nM.
On to `Cc1ccc(C2COCCN2C(=O)c2ccc3nc(N)c4c(c3c2)COC4)cc1` (racemic) [Example 361, (4-amino-1,3-dihydrofuro[3,4-c]quinolin-8-yl)-[rac-(3S)-3-(p-tolyl)morpholin-4-yl]methanone], for which the IC50 in assay [2] (HCT116-MTAP null, 144 h) worked out at 839 nM.
The same measure, in the same setting: the result for `CC1(C)CN(C(=O)c2ccc3nc(N)c4c(c3c2)COC4)[C@@H](c2ccc(C(F)(F)F)cn2)CO1` (single isomer, unassigned) [Example 594] reads 99 nM; that for `C[C@@H]1COC[C@H](c2cc(F)cc(F)c2)N1C(=O)c1cc2c3c(c(N)nc2cn1)[C@@H](C)OC3` (racemic) [Example 324, ((3R)-4-amino-3-methyl-1,3-dihydrofuro[3,4-c][1,7]naphthyridin-8-yl)((3R,5S)-3-(3,5-difluorophenyl)-5-methyl-4-morpholinyl)methanone and ((3R)-4-amino-3-methyl-1,3-dihydrofuro[3,4-c][1,7]naphthyridin-8-yl)((3S,5R)-3-(3,5-difluorophenyl)-5-methyl-4-morpholinyl)methanone], 186 nM.
Same read-out and setting: the figure for `Nc1nc2ccc(C(=O)N3CCOCC3c3ccccc3Cl)cc2c2c1COC2` (racemic) [Example 360, (4-amino-1,3-dihydrofuro[3,4-c]quinolin-8-yl)-[rac-(3S)-3-(2-chlorophenyl)morpholin-4-yl]methanone] is 1050 nM; for `Nc1nc2cnc(C(=O)N3CCOCC3c3ccc(C4CC4)nc3)cc2c2c1COC2` (racemic) [Example 495, (4-amino-1,3-dihydrofuro[3,4-c][1,7]naphthyridin-8-yl)-[rac-(3S)-3-(6-cyclopropyl-3-pyridyl)morpholin-4-yl]methanone] it is 502 nM; for `CC(C)Oc1ccc([C@H]2COCCN2C(=O)c2cc3c4c(c(N)nc3cn2)COC4)cn1` (mixture of isomers) [Example 323, (4-amino-1,3-dihydrofuro[3,4-c][1,7]naphthyridin-8-yl)((3R)-3-(6-(2-propanyloxy)-3-pyridinyl)-4-morpholinyl)methanone and (4-amino-1,3-dihydrofuro[3,4-c][1,7]naphthyridin-8-yl)((3S)-3-(6-(2-propanyloxy)-3-pyridinyl)-4-morpholinyl)methanone] it is 397 nM.
As for `Nc1nc2ccc(C(=O)N3CCOCC3c3ccc(Br)cc3)cc2c2c1COC2` (racemic) [Example 367, (4-amino-1,3-dihydrofuro[3,4-c]quinolin-8-yl)-[rac-(3S)-3-(4-bromophenyl)morpholin-4-yl]methanone], the IC50 in assay [2] (HCT116-MTAP null, 144 h) came out at 368 nM.
